Holding throughout (format): cell-based, mouse
For experiment [1], the system named is SN murine neuronal cultures. Nature of the experiment: NM and MHC-I induction by L-DOPA in SN neuronal cultures. From the text:
To enhance cytosolic DA, the DA precursor, L-DOPA, was used, which is accumulated by amino acid transport and converted into DA in the cytosol. Exposure to high levels of L-DOPA can produce NM in both catecholaminergic and nominally non-catecholaminergic cells (Sulzer et al., 2000). […] SN murine neuronal cultures were exposed to L-DOPA under conditions that substantially increase cytosolic DA as measured by intracellular patch electrochemistry (Mosharov et al., 2009) and promote NM production as observed by brightfield microscopy (Sulzer et al., 2000).
IFN-γ (R&D Systems) was used at a range of non-toxic concentrations for neurons or OT-1 cells (10 μg/ml-100 ng/ml, 72h). 12-well cell culture plates were pre-treated with LPS (500 ng/ml, Sigma-Aldrich), NM (5 μg/ml), α-syn, Nit-α-syn or Mut-α-syn (200 μg/ml, kindly provided by Peter Lansbury, Harvard University) for 72 h before plating 45,000-50,000 microglial cells/well for an additional 24h. A neutralizing IFN-γ antibody (1:500, PBL InterferonSource) was used to block IFN-γ released from microglia. VM neurons were incubated for 72 h with microglial medium pre-stimulated by LPS, NM, α-syn, Nit-α-syn or Mut-α-syn. As a control experiment, we directly incubated VM neurons with the same compounds in the absence of microglia. In another set of experiments, VM, cortical and striatal primary neurons were incubated for 72 h with microglial medium pre-stimulated by LPS, NM, α-syn. NM was induced in SN cultured neurons by using L-DOPA (Sulzer et al., 2000) (Sigma Aldrich). […]
(§1) Images were captured using a Leica SP5 microscope system. There was no fluorescence bleed-through of secondary antibodies under the conditions used. […]
(§2) In order to assess the proportion of TH^+ and MAP-2^+ neurons that expressed MHC-I^+, first TH^+ and MAP-2^+ neurons were counted in 24 fields surrounding the border of the well at 20× magnification. The number of TH^+ or MAP-2^+ neurons with intact soma and two or more neurites equal to or greater than the diameter of the cell soma was counted. […]

In another experiment the test system is OT-1 CTL cells. Briefly: OT-1 CD8+ cell proliferation by BrdU incorporation. Particulars: combination with IFN-γ; DC and VM neuronal cultures. From the text: The capacity of CTLs to respond to MHC-I induced SN neurons was examined first, by following CTL proliferation using 5-bromo-2-deoxyuridine (BrdU) incorporation.
Primary DCs were obtained from mouse […] femur hematopoietic stem cells. In brief, mouse femur hematopoietic stem cells from bone marrow were harvested from the hind legs of 8 to 12-week old male wild-type C57BL/6J and plated at 2×10^6 cells/ml density in DC culture medium (DMEM supplemented with 10% FBS, lx non-essential amino acids, 2 mM L-glutamine, 1 mM sodium pyruvate and 20 mM HEPES). For differentiation to dendritic cells, 10 ng/ml of recombinant mouse GM-CSF was added to media. Cells were fed every 2 days with fresh DMEM containing GM-CSF, and the cultures were trypsinized after 8 days and plated at 4×10^5 cells/cm^2 density to be used for experiments the following day (Tallóczy et al., 2008). OT-1 CD8^+ and OT-2 CD4^+ T cell lines, a kind gift from Dr. Raphael Clynes (Department of Medicine and Microbiology, Columbia University Medical Center), express a transgene encoding T cell receptor that specifically recognizes […] (SEQ ID NO: 9) peptide (derived from OVA) bound to MHC-I H-2Kb or to MHC-II I-A/I-E (Hogquist et al., 1994). Activated primary OT-1 and OT-2 T cells were generated by the addition of […] […]
OT-1 CD8^+ cell proliferation was assessed by BrdU incorporation. […]
In general terms: Dividing cells build labelled thymidine or BrdU into new DNA.

Experiment [2] has as its system VM DA (TH+) neurons. Nature of the experiment: Antigen processing and presentation, […]-MHC-I immunolabel. As to conditions: IFN-γ with extracellular SIINFEKL, positive control. The protocol:
Following exposure of SN neuronal cultures to OVA or vehicle for 7 days, neurons were exposed to IFN-γ or saline for 72 h (note that these cultures were never exposed to […] (SEQ ID NO: 9)). The cultures were then double immunolabeled for TH and an antibody that recognizes only the MHC-I complex when is occupied by […] (SEQ ID NO: 9) ([…]-MHC-I). Occasional label of astrocytes, but not neurons, for […]-MHC-I was observed when the cultures were exposed to the vehicle, IFN-γ, or OVA alone (FIG. 5A). […] The results herein indicate that OVA had been processed to […] (SEQ ID NO: 9) within these mixed neuron/astrocyte cultures and loaded into the MHC-I groove within neuronal cytosol, and that the resulting complex was presented on the neuronal plasma membrane.
IFN-γ (R&D Systems) was used at a range of non-toxic concentrations for neurons or OT-1 cells (10 μg/ml-100 ng/ml, 72h). […]
as §1, §2

Experiment [3] relates to VM DA (TH+) neurons. Nature of the experiment: OT-1 T cell cytotoxicity (killing) assay on VM DA neurons. The method, then:
OT-1 CD8^+ cell proliferation was assessed by BrdU incorporation. For OT-1 T cell cytotoxicity assays, DC and VM (from C57BL/6 and 56.129P2-B2mtm1Unc/J mice) cell cultures were incubated with neuronal medium or neuronal medium containing 100 ng/ml of IFN-γ (R&D Systems). Neurons were loaded with or without […] (SEQ ID NO: 9) peptide (1 μM), and, subsequently in vitro activated OT-1 cells were added at a density of 100,000 cells/well and co-incubated for 24 h.
We used the same conditions for VM cell cultures with microglial medium previously stimulated with LPS, NM or α-syn instead of IFN-γ. Neurons were pre-incubated with IFN-γ and […] (SEQ ID NO: 9) peptide as above, and then with: 1) a pan-caspase general inhibitor (Z-VAD-FMK, 20 μM, 24h, IMGENEX); 2) a specific granzyme/perforin inhibitor (concanamycin A, 100 nM, 24h, Sigma Aldrich); 3) a specific Fas/FasL antagonist (Kp7-6, 1 mM, 24h, EMD Biosciences) and 4) concanamycin A and Kp7-6 together. OT-1 cells were then added to the culture (100,000 cells/well) and maintained for 24 h.
Following immunocytochemical staining of VM neurons, we assessed the proportion of surviving DA (TH^+) and non-DA cells (MAP-2^+, TH^−). Total numbers of TH^+ and MAP-2^+ neurons were counted in 24 fields surrounding the border of the well at 20× magnification. The number of surviving TH+ neurons with an intact soma and two or more neurites equal to or greater than the diameter of the cell soma was counted and normalized to the number in untreated cultures.

Another experiment deals with primary VM neurons. Nature of the experiment: MHC-I expression of VM neurons after microglial conditioned medium. As to conditions: for cell surface MHC-I presentation by VM neurons: conditioned medium from microglia incubated 72 hours with the substance; for induction of neuronal MHC-I: cultures directly exposed, absence of microglial cells. The method, then: IFN-γ (R&D Systems) was used at a range of non-toxic concentrations for neurons or OT-1 cells (10 μg/ml-100 ng/ml, 72h). 12-well cell culture plates were pre-treated with LPS (500 ng/ml, Sigma-Aldrich), NM (5 μg/ml), α-syn, Nit-α-syn or Mut-α-syn (200 μg/ml, kindly provided by Peter Lansbury, Harvard University) for 72 h before plating 45,000-50,000 microglial cells/well for an additional 24h. A neutralizing IFN-γ antibody (1:500, PBL InterferonSource) was used to block IFN-γ released from microglia. VM neurons were incubated for 72 h with microglial medium pre-stimulated by LPS, NM, α-syn, Nit-α-syn or Mut-α-syn. As a control experiment, we directly incubated VM neurons with the same compounds in the absence of microglia. In another set of experiments, VM, cortical and striatal primary neurons were incubated for 72 h with microglial medium pre-stimulated by LPS, NM, α-syn. NM was induced in SN cultured neurons by using L-DOPA (Sulzer et al., 2000) (Sigma Aldrich). For foreign protein processing and subsequent antigen presentation, VM cultures were maintained for 7 days in either 1) BSA/serum-free neuronal medium, 2) BSA/serum-free supplemented with OVA (2.5 mg/ml), adding IFN-γ (100 ng/ml) or saline for an additional 72h.
Images were captured using a Leica SP5 microscope system. There was no fluorescence bleed-through of secondary antibodies under the conditions used. MHC-I label observed in the neuronal cultures obtained from wild type mice was absent in neurons from β2m KO mice (FIG. 3A).
In order to assess the proportion of TH^+ and MAP-2^+ neurons that expressed MHC-I^+, first TH^+ and MAP-2^+ neurons were counted in 24 fields surrounding the border of the well at 20× magnification. The number of TH^+ or MAP-2^+ neurons with intact soma and two or more neurites equal to or greater than the diameter of the cell soma was counted. Then, the fluorescent filter was inserted for each field to determine how many of these neurons also expressed MHC-I.

The test system of experiment [4] is primary microglial cultures. Nature of the experiment: ELISA of IFN-γ released by microglia. As to conditions: primary microglial culture. The method, then:
Briefly, for microglial cultures cells dissociated from 5 cortexes of 0-3 days old C57/B16 mice were seeded onto 75 cm^2 cell culture flasks in microglial culture medium (MEM supplemented with calf serum, glucose 45%, penicillin/streptomycin, insulin (25 mg/ml) and 200 mM glutamine) in a 5% CO^2 incubator at 37° C. (Sulzer et al., 2008). Two weeks later, microglia were detached from flasks by mild shaking and plated on 12 well-plates at a density of 45,000-50,000 microglial cells/well. For neuronal cultures, the area of interest was dissected and neurons were dissociated and plated at a density of 80,000/cm′ onto a layer of rat cortical glial cells grown on round glass coverslips and maintained in culture medium without added GDNF (glial cell line-derived neurotrophic factor) in a 5% CO^2 incubator at 37° C. for 5-9 days)(Sulzer et al., 2008). IFN-γ (R&D Systems) was used at a range of non-toxic concentrations for neurons or OT-1 cells (10 μg/ml-100 ng/ml, 72h). […] The concentration of IFN-γ released by microglia (plated as above) was measured by an ELISA kit (eBioscience) that detected the amount of this proinflammatory cytokine in a range of […].
On the technique in general: ELISA stands for enzyme-linked immunosorbent assay.

[5] abbreviates: SIINFEKL, CTLs and medium conditioned by microglia exposed to the substance.

The values that follow come from US20170184612A1, “USE OF LEUKOCYTES AND NOVEL BIOMARKERS IN THE DIAGNOSIS, CONFIRMATION, AND TREATMENT OF A NEUROLOGICAL DISORDER” (The Trustees of Columbia University in the City of New York, priority 2014, published 2017).

Take `N[C@@H](Cc1ccc(O)c(O)c1)C(=O)O` [L-DOPA, L-dihydroxyphenylalanine]: the “neurons in which NM was induced” value in experiment [1] worked out at 40%. In addition, in experiment [1] (TH+ neurons), the “TH+ neurons with MHC-I display” value was around 10%. Besides, the “TH− neurons with MHC-I display” value in experiment [1] (TH− neurons) was around 7%.

For “SIINFEKL [8 amino acid peptide derived from OVA]”, in the experiment with OT-1 CTL cells, the CTL proliferation result was “induced similar CTL proliferation by both DC and VM neuronal cultures”. Besides, the “TH+ neurons with SIINFEKL-MHC-I immunolabel” value in the experiment with VM DA (TH+) neurons [2] is reported as around 70%. Further, the neuronal death entry in the experiment with VM DA (TH+) neurons [3] (combination of CTLs, IFN-γ and SIINFEKL, MHC-I null (KO) SN neurons) is listed as “no neuronal death was triggered”. Also, in the experiment on VM DA (TH+) neurons [3] (combination of CTLs, IFN-γ and SIINFEKL, wild type neurons), the “TH+ neurons killed” value is 55%.

As to “lipopolysaccharide [LPS, reference compound]”, in the experiment on primary VM neurons, the “cell surface MHC-I presentation by VM neurons” value was “elicited cell surface MHC-I presentation” and the “induction of neuronal MHC-I” value is reported as “no induction”. Besides, the “IFN-γ secretion, in words” value in experiment [4] is given as “induced IFN-γ secretion”. Also, the neuronal death result in the experiment on VM DA (TH+) neurons [3] (setting [5]) was “caused extensive neuronal death”.

Take “α-syn: alpha synuclein protein, wild type”: in the experiment with primary VM neurons, the “cell surface MHC-I presentation by VM neurons” value is reported as “elicited cell surface MHC-I presentation” and the “induction of neuronal MHC-I” value is “no induction”. Moreover, the neuronal death result in the experiment with VM DA (TH+) neurons [3] (setting [5]) is reported as “caused extensive neuronal death”.
